From ChEMBL document CHEMBL1201862, “PubChem BioAssay data set” (2004)
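Method: 48-hour compound exposure of cells in 96-well plates, five concentrations, linear interpolation of endpoints. GI50 = concentration required for 50% inhibition of growth.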 Calls of active or inactive are those of the source. Cut-off read from the data, not from the text of the source: active = GI50 up to about 1.1 µM and inactive = higher.

Assays:
Experiment in all cases: NCI tumour cell line growth inhibition, 48 h
HOP-92 = tested on: HOP-92
BT-549 = tested on: BT-549
K562 = tested on: K562
SK-OV-3 = tested on: SK-OV-3
PC-3 = tested on: PC-3
MDA-MB-435 = tested on: MDA-MB-435
M14 = tested on: M14
LOX IMVI = tested on: LOX IMVI
RXF 393 = tested on: RXF 393
SR = tested on: SR
SW-620 = tested on: SW-620
SK-MEL-28 = tested on: SK-MEL-28
MDA-MB-231 = tested on: MDA-MB-231
EKVX = tested on: EKVX
ACHN = tested on: ACHN
SNB-75 = tested on: SNB-75
KM12 = tested on: KM12
DU-145 = tested on: DU-145
MOLT-4 = tested on: MOLT-4

| SMILES | GI50 (HOP-92) | GI50 (BT-549) | GI50 (K562) | GI50 (SK-OV-3) | GI50 (PC-3) | GI50 (MDA-MB-435) | GI50 (M14) | GI50 (LOX IMVI) | GI50 (RXF 393) | GI50 (SR) | GI50 (SW-620) | GI50 (SK-MEL-28) | GI50 (MDA-MB-231) | GI50 (EKVX) | GI50 (ACHN) | GI50 (SNB-75) | GI50 (KM12) | GI50 (DU-145) | GI50 (MOLT-4) |
| --- | --- | --- | --- | --- | --- | --- | --- | --- | --- | --- | --- | --- | --- | --- | --- | --- | --- | --- | --- |
| O=C(O)CSc1ccc([N+](=O)[O-])cc1[N+](=O)[O-] | > 100 µM (inactive) | > 100 µM (inactive) | > 100 µM (inactive) | > 100 µM (inactive) | > 100 µM (inactive) | > 100 µM (inactive) | > 100 µM (inactive) | > 100 µM (inactive) | > 100 µM (inactive) | > 100 µM (inactive) | > 100 µM (inactive) | > 100 µM (inactive) | > 100 µM (inactive) | > 100 µM (inactive) | > 100 µM (inactive) | > 100 µM (inactive) | > 100 µM (inactive) | > 100 µM (inactive) |  |
| Cc1cc(C)n(C(=CC(=O)C(Cl)Cl)n2nc(C)cc2C)n1 | 9.31 µM (inactive) | 2.45 µM (inactive) | 2.17 µM (inactive) | 23.5 µM (inactive) | 11.4 µM (inactive) | 2.52 µM (inactive) | 2.83 µM (inactive) | 1.57 µM (inactive) | 2.61 µM (inactive) | 1.61 µM (inactive) | 3.88 µM (inactive) |  | 2.38 µM (inactive) |  | 6.05 µM (inactive) | > 100 µM (inactive) | 6.49 µM (inactive) | 5.38 µM (inactive) | 0.151 µM (active) |
| CC1(C)C=[N+]([O-])C(C)(C)N1O | > 10 µM (inactive) | > 10 µM (inactive) | > 10 µM (inactive) |  | > 10 µM (inactive) | > 10 µM (inactive) | > 10 µM (inactive) |  | > 10 µM (inactive) | > 10 µM (inactive) | > 10 µM (inactive) |  | > 10 µM (inactive) | > 10 µM (inactive) | > 10 µM (inactive) |  | > 10 µM (inactive) | > 10 µM (inactive) | > 10 µM (inactive) |
| CSc1nc(Br)nc2ncn(C3CC(Oc4ccc(C)cc4)C(COc4ccc(C)cc4)O3)c12 (stereo not given) | 34 µM (inactive) | > 100 µM (inactive) |  | > 100 µM (inactive) | > 100 µM (inactive) | > 100 µM (inactive) | > 100 µM (inactive) | > 100 µM (inactive) |  | 3.72 µM (inactive) | > 100 µM (inactive) | > 100 µM (inactive) | > 100 µM (inactive) | > 100 µM (inactive) | 28.2 µM (inactive) | 21.9 µM (inactive) | > 100 µM (inactive) | > 100 µM (inactive) | > 100 µM (inactive) |
| CCn1c(=O)c2c3ccc(O)cc3[nH]c2c2ccc(O)cc21 | > 100 µM (inactive) | > 100 µM (inactive) | 83.6 µM (inactive) | > 100 µM (inactive) | > 100 µM (inactive) | 61 µM (inactive) | > 100 µM (inactive) |  | > 100 µM (inactive) | 55.6 µM (inactive) | > 100 µM (inactive) | > 100 µM (inactive) | 64.4 µM (inactive) | > 100 µM (inactive) | 96.4 µM (inactive) | 66.2 µM (inactive) | > 100 µM (inactive) | > 100 µM (inactive) | 39.1 µM (inactive) |
| Cc1cnoc1/N=C1\C=C(O)C(=O)c2ccccc21 | 29.4 µM (inactive) | 4.9 µM (inactive) | 1.73 µM (inactive) | > 100 µM (inactive) | 25.4 µM (inactive) | 1.31 µM (inactive) | 12.5 µM (inactive) | 5.26 µM (inactive) |  | 33.6 µM (inactive) | 25.8 µM (inactive) | 29.9 µM (inactive) | 25.6 µM (inactive) | 29.5 µM (inactive) | 21.8 µM (inactive) | 10.4 µM (inactive) | 11.9 µM (inactive) | 18 µM (inactive) | 17.4 µM (inactive) |
| COC(=O)c1ccc(/C=C2\Cc3ccccc3C2=O)cc1 |  | > 100 µM (inactive) | > 100 µM (inactive) | > 100 µM (inactive) | > 100 µM (inactive) | > 100 µM (inactive) | > 100 µM (inactive) |  | > 100 µM (inactive) | > 100 µM (inactive) | > 100 µM (inactive) | > 100 µM (inactive) | > 100 µM (inactive) | > 100 µM (inactive) | > 100 µM (inactive) | > 100 µM (inactive) | > 100 µM (inactive) | > 100 µM (inactive) | > 100 µM (inactive) |
| COC(=O)[C@]12CC[C@H]3CN(S(=O)(=O)c4ccc(C)cc4)[C@H]([C@H]31)[C@H](c1ccco1)N2S(=O)(=O)c1ccc(C)cc1 | 10.1 µM (inactive) | 30.1 µM (inactive) | 30.2 µM (inactive) | > 100 µM (inactive) | 28.8 µM (inactive) | 22.9 µM (inactive) | 26.8 µM (inactive) | 34.7 µM (inactive) | 16.8 µM (inactive) | 38.7 µM (inactive) | 70.1 µM (inactive) | 51.4 µM (inactive) | 55.8 µM (inactive) | 51.1 µM (inactive) | 39.7 µM (inactive) |  | 32.9 µM (inactive) | 40.6 µM (inactive) | 31.1 µM (inactive) |
| CC(=O)OCC1OC(NC(=S)CCSc2nc3ccccc3c(=O)n2-c2ccccc2)C(OC(C)=O)C(OC(C)=O)C1OC(C)=O (stereo not given) | 16.9 µM (inactive) | 31.4 µM (inactive) | 34.2 µM (inactive) | 46.9 µM (inactive) | 40.9 µM (inactive) | 52 µM (inactive) | 46.1 µM (inactive) | 79.6 µM (inactive) | 18 µM (inactive) | 34.1 µM (inactive) | 41.2 µM (inactive) | 59.6 µM (inactive) | > 100 µM (inactive) | 57.8 µM (inactive) | 83.4 µM (inactive) | 22 µM (inactive) | 36.5 µM (inactive) | > 100 µM (inactive) | 30 µM (inactive) |
| C=CCNC(=O)CN(CC(=O)O)C1CCCCC1N(CC(=O)O)CC(=O)O (stereo not given) | > 100 µM (inactive) | > 100 µM (inactive) | > 100 µM (inactive) | > 100 µM (inactive) | > 100 µM (inactive) | > 100 µM (inactive) |  | > 100 µM (inactive) | > 100 µM (inactive) | > 100 µM (inactive) | > 100 µM (inactive) | > 100 µM (inactive) | > 100 µM (inactive) |  | > 100 µM (inactive) | > 100 µM (inactive) | > 100 µM (inactive) | > 100 µM (inactive) | > 100 µM (inactive) |
| C=C1C(=O)O[C@H]2[C@H]3O[C@@H](C[C@@H]12)[C@@]1(C)CC[C@H](O1)[C@H](C)CCC[C@H]3C | 1.43 µM (inactive) | 0.811 µM (active) | 1.44 µM (inactive) | 7.38 µM (inactive) | 1.61 µM (inactive) | 1.32 µM (inactive) |  | 1.55 µM (inactive) | 2.15 µM (inactive) | 0.148 µM (active) | 1.46 µM (inactive) | 1.63 µM (inactive) | 1.65 µM (inactive) | 1.44 µM (inactive) | 1.51 µM (inactive) | 1.63 µM (inactive) | 2.18 µM (inactive) | 1.52 µM (inactive) | 1.23 µM (inactive) |
| CN1CC[C@@]2(c3cccc(O)c3)CC(=O)/C(=C/c3ccccc3)[C@H]1C2.[O-][Cl+3]([O-])([O-])O | 14.9 µM (inactive) | 11.8 µM (inactive) | 2.58 µM (inactive) |  | 4.29 µM (inactive) | 3.05 µM (inactive) | 10.5 µM (inactive) | 1.7 µM (inactive) | 8.17 µM (inactive) | 2.61 µM (inactive) | 2.54 µM (inactive) | 11.2 µM (inactive) | 6.82 µM (inactive) | 14.9 µM (inactive) | 8.11 µM (inactive) | 2.47 µM (inactive) | 3.81 µM (inactive) | 15.8 µM (inactive) | 2.49 µM (inactive) |
| O=c1oc2cc(O)ccc2cc1-c1nc2ccccc2o1 | 26.7 µM (inactive) | 15.5 µM (inactive) | 30.4 µM (inactive) |  | 42.4 µM (inactive) | 28.2 µM (inactive) | 36.3 µM (inactive) | 44.4 µM (inactive) | < 0.01 µM (active) | 30.9 µM (inactive) | 40.3 µM (inactive) | 43.5 µM (inactive) | 35.6 µM (inactive) | 28.5 µM (inactive) | 32.3 µM (inactive) | 63.8 µM (inactive) | 25.8 µM (inactive) | 33.3 µM (inactive) | 24.7 µM (inactive) |
| CCc1c(Cc2cc(C)cc(C)c2)n2c(nc1=O)SCC2CBr (stereo not given) | 9.93 µM (inactive) | > 50 µM (inactive) | > 50 µM (inactive) |  | > 50 µM (inactive) | > 50 µM (inactive) | > 50 µM (inactive) | > 50 µM (inactive) | > 50 µM (inactive) | > 50 µM (inactive) | > 50 µM (inactive) | > 50 µM (inactive) | 19.6 µM (inactive) | 27 µM (inactive) | > 50 µM (inactive) | 15.5 µM (inactive) | > 50 µM (inactive) | 23.1 µM (inactive) | 34 µM (inactive) |
| NC(=O)C1=C(c2ccccc2)c2ccccc2C1=O | 17.7 µM (inactive) | 16.9 µM (inactive) | 38.1 µM (inactive) | 18.3 µM (inactive) | 17.8 µM (inactive) | 26.1 µM (inactive) | 19.1 µM (inactive) | 7.98 µM (inactive) | 19.7 µM (inactive) | 4.78 µM (inactive) | 25.1 µM (inactive) | 20.1 µM (inactive) | 17.8 µM (inactive) | 18.8 µM (inactive) | 11.4 µM (inactive) | 19.7 µM (inactive) | 16.1 µM (inactive) | 17.1 µM (inactive) | 3.37 µM (inactive) |
